The values below come from patent US9944660B2, “Tricyclic benzoxaboroles as antibacterial agents” (Daiichi Sankyo Company, Limited, priority 2014, dated 2018).

Series [1] has as its system P. aeruginosa. Briefly: Bacterial susceptibility testing (MIC, CLSI microdilution). Type of series: cell-based. The following applies: Pseudomonas aeruginosa, strain not stated, read-out: MIC against P. aeruginosa. As to the method:
(§1) (Test Example 2) Method of Testing Susceptibility of Bacterial [MICs]
(§2) Minimum inhibitory concentration (MIC) were determined as recommended by the Clinical and Laboratory Standards Institute (CLSI) in 2010 (M100-520), in 2011 (M100-521), 2012 (M100-522) and in 2013 (M100-523) with minor modifications.
(§3) In short, bacterial cultures were streaked on Muller Hinton Agar plates and incubated at 35±2° C. for about 18 to 20 hours. Following day colony suspension was prepared in saline and adjusted to 0.5 McFarland using Densitometer. This culture was further diluted 100 fold in Muller Hinton Broth or M9 minimal media or pooled human urine and used for MIC determination. The test compounds were prepared in dimthylesulfoxide (DMSO) at concentration of 1 mg/mL, and diluted to 32 μg/mL in respective media. Further two fold serial dilution were prepared in 96 well microtiter plates. 50 μL of diluted cultures were added to all wells and incubated at 35±2° C. for about 16 to 20 hours.
A general note: Broth dilution looks for growth in wells or tubes with falling amounts of substance.

Series [2] relates to K. pneumoniae ATCC 13883. The description is as above. Format: cell-based. To be noted: Klebsiella pneumoniae, ATCC13883. As to the method: as §1, §2, §3
Series [3] concerns E. coli ATCC 25922. Described as above. Format: cell-based. To be noted: Escherichia coli, ATCC25922. As to the method:
as §1, §2, §3

Series [4] has as its system P. aeruginosa PAO-1. Briefly: In vivo efficacy in P. aeruginosa PAO1 murine lung infection model. The following applies: subcutaneous 75 mg/kg twice daily. The protocol:
(Test Example 3c) In Vivo Efficacy in P. aeruginosa PAO1 Murine Lung Infection Model Overnight grown culture of P. aeruginosa PAO-1 on TSA agar was inoculated in Brain heart infusion broth (BHI, DIFCO) and grown in a shaker incubator with shaking at 110 rpm at 35±2° C. overnight. The culture was subcultured in 50 mL of BHI and incubated again at 110 rpm at 35±2° C. on a shaker incubator till the optical density of the culture reaches 0.5-0.7 units. For infection, animals were weighed, randomized and anesthetized by giving isofluorane. Under anesthesia the animals were infected with 50 μL of the inoculum prepared as above by intranasal route. The test compounds were administered at 75 mg/kg body weight by subcutaneous route after 1 hour and 6 hours post infection. Animals were euthanized, lungs were removed aseptically and homogenized in PBS (3 mL) and serial dilutions plated on TSA plates 24 hours post infection.

The nature of series [5]: Oral bioavailability (BA) in rats. To be noted: male, rat, plasma, 8.5 mg/kg body weight; Sprague Dawley Rats, 8.5 mg/kg oral, 4.25 mg/kg intravenous; read-out: oral absolute bioavailability. Type of series: in vivo. As to the method:
(Test Example 8a) Oral Bioavailability (BA) in Rats
To Male Sprague Dawley Rats (215±10 g) test compound was administered as 2.0 mg/mL solution in milli-Q water (pH 5.0) by intravenous and oral route. The final dose was 4.25 mg/kg body weight (intravenous) or 8.5 mg/kg body weight (oral). Plasma samples analyzed for test compound using LC-MS/MS method. Estimation of pharmacokinetic parameters was done by using moment analysis. WinNonlin software 6.1 (Pharsight) was utilized for the estimation of PK parameters and oral bioavailability.

Series [6] can be described thus: Oral bioavailability (BA) in mouse. Format: in vivo. The following applies: female, plasma, 8.5 mg/kg body weight, Swiss mice, 8.5 mg/kg oral, 4.25 mg/kg intravenous, read-out: oral absolute bioavailability. The protocol:
(Test Example 8b) Oral Bioavailability (BA) in Mouse
To Female Swiss mouse (23±3 g) test compound was administered as 0.5 mg/mL intravenous and 1 mg/mL oral solution in milli-Q water (pH 5.0). The final dose was 4.25 mg/kg body weight (intravenous) and 8.5 mg/kg body weight (oral route). Plasma samples analyzed for test compound using LC-MS/MS method. Estimation of pharmacokinetic parameters was done by using moment analysis. WinNonlin software 6.1 (Pharsight) was utilized for the estimation of PK parameters and oral bioavailability.

In series [7] the test system is E. coli GK00432. Briefly: In vivo efficacy in E. coli murine neutropenic thigh infection model. Set-up: species or system Swiss albino mice. To be noted: subcutaneous. The protocol: (Test Example 3b) In Vivo Efficacy in E. coli Murine Neutropenic Thigh Infection Model
Efficacy of test compounds were evaluated by subcutaneous (SC) route against E. coli GK00432 in neutropenic mouse thigh infection model. Study was performed in Swiss albino mice of either sex weighing 20±2 g. Neutropenia was induced by intraperitoneal injections of cyclophosphamide given twice prior to infection (150 mg/kg, at 4 days prior to infection, and 100 mg/kg, at 1 day prior to infection). E. coli inoculum (0.1 mL) was injected intra-muscularly in the thigh muscle. After 2 hours, test compound at a dose of 30 mg/kg and 60 mg/kg body weight were administered by subcutaneous route and one group of mice (n=5) was sacrificed to evaluate total live bacterial count per thigh as baseline bacterial loads. Remaining three doses of test compound were administered by subcutaneous route after […] hours of the infection. Animals were euthanized, thigh muscles were removed aseptically and homogenized in phosphate buffered saline (3 mL) and serial dilutions plated Tryptone Soya Agar plates 26 hours post infection.

In series [8] the test system is P. aeruginosa PAO1 (parent, MexAB del, MexAB over expression). Briefly: MICs against Pseudomonas efflux pump mutants. Type of series: cell-based. The protocol:
as §3
(Test Example 5) MICs Against Pseudomonas Efflux Pump Mutants
Multidrug-resistant (MDR) P. aeruginosa isolated from nosocomial infections in intensive care units (ICUs) are often related to altered regulation of the specific efflux pumps and porins in P. aeruginosa strains. Tested compounds that show similar activity against efflux pump overproducers and lab strains can be predictive of activity in nosocomial patients infected with MDR strains. To identify such compounds we have determined MICs against P. aeruginosa PAO1 against Efflux deleted and overproducer strains.

Series [9] has as its system E. coli ATCC 25922. Briefly: MICs in Muller Hinton Broth and pooled human urine. Type of series: cell-based. The following applies: Escherichia coli, ATCC25922. The protocol:
as §3
(Test Example 4) MICs in Human Urine Against E. coli and K. pneumonia
Many antibacterial compounds like fluroquinolones loose activity in human urine at acidic pH (acidic urine promotes rigorous bacterial growth). MICs were performed using CLSI guidelines (2011) against E. coli 25922 in Muller Hinton Broth (MHB) and pooled human urine.

The target in series [10] is T1, P. aeruginosa LRS (Pseudomonas aeruginosa, UniProt Q9HX33).
T1 construct: made in house
Briefly: Leucine tRNA synthetase (LRS) enzyme inhibition assay. Format: biochemical. To be noted: 3H leucine incorporation. The protocol:
(§4) (Test Example 1) Leucine tRNA Synthetase (LRS) Enzyme Inhibition Assay [IC50]
(§5) E. coli and P. aeruginosa LRS enzymes were cloned, expressed and purified in-house. The IC50 values were determined by using following assay protocol.
(§6) Test compounds were diluted in milli-Q water. 5 μL (microliter) of test compound dilution was mixed with 20 μL of reaction mixture consisting of 100 millimolar Tris (Trizma base from Sigma), 120 millimolar potassium chloride (Sigma), […] magnesium chloride (Sigma), 50 millimolar dithiothreitol, 50 mg/mL E. coli tRNA (Roche), 150 micromolar leucine (Sigma), 0.5 microcurie of ^3H Leucine (Amersham) and 20 μL of appropriate dilution of LRS enzyme, incubate in shaker at about 30° C. for 20 minutes. The reaction was started by adding 5 μL of 40 millimolar ATP (Sigma) and incubated on shaker at the same temperature further for 20 minutes. The reaction was quenched with 150 μL ice cold trichloroacetic acid (10%). The content of each well was transferred to 96 well GF/C plates (from Pall), and washed with 150 μL of trichloroacetic acid (5%) using vacuum manifold (from Pall). Plates were dried and read using Microbeta Wallac liquid scintillation counters after adding 100 μL of scintillation cocktail (Perkin Elmer's OptiPhase ‘SuperMix’) to each well. IC50 was calculated with respect to enzyme control after subtracting background (No enzyme control) using Graph Pad Prism software.

Series [11] addresses T2, E. coli LRS (Escherichia coli, UniProt P07813).
T2 construct: made in house
The description is as above. Type of series: biochemical. The protocol: as §4, §5, §6

SMILES strings stand for the structures. Like-named read-outs stand apart in the source and are kept apart here.

T1 sequence (Q9HX33 whole entry): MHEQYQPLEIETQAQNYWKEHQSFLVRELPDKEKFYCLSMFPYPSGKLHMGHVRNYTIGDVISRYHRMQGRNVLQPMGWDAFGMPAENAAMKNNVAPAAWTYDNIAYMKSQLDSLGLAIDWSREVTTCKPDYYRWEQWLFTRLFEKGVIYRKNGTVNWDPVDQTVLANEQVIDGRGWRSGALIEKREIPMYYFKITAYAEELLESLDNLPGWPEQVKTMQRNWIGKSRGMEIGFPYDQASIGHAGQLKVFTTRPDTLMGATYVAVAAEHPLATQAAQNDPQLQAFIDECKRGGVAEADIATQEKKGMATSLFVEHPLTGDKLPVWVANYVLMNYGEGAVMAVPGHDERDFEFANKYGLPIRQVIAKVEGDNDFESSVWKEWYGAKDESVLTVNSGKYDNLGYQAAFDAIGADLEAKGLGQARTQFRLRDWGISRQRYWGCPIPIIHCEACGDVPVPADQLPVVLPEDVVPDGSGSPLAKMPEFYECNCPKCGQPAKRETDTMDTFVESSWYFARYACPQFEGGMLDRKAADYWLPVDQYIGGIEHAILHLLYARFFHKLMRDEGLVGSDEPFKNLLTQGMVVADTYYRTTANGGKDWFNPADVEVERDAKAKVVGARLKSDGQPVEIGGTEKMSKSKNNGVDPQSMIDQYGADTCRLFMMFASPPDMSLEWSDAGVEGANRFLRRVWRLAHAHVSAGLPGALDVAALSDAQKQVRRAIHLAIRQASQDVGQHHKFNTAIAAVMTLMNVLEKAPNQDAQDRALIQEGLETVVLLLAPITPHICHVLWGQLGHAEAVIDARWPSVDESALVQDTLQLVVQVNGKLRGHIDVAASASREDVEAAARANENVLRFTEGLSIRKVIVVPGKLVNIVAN
T2 sequence (P07813 whole entry): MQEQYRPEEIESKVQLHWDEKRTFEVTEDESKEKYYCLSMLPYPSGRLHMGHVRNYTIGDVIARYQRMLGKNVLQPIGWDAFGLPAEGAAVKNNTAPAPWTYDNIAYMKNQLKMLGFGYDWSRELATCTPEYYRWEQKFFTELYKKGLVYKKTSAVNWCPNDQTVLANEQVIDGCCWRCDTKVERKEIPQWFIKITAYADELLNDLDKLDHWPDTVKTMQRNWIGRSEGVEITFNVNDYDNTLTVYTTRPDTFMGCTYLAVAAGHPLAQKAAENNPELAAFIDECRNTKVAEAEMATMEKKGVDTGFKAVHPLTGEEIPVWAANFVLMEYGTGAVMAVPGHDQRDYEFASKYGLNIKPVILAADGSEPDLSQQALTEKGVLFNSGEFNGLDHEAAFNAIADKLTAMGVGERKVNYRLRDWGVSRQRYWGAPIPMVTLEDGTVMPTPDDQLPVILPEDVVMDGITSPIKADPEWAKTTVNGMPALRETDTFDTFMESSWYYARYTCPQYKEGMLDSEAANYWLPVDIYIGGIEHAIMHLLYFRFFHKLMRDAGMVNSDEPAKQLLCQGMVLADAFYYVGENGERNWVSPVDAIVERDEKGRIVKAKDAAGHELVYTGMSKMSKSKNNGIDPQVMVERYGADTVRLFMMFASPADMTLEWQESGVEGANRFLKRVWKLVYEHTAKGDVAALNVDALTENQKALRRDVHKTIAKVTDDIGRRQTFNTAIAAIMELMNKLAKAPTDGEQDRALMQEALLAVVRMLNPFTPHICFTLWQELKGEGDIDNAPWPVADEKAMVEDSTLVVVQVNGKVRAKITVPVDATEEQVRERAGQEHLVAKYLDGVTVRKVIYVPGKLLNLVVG

Take `Cl.NC[C@H]1OB(O)c2ccc3c(c21)OCO3` (single isomer, unassigned) [Compound 6]: the MIC is 2 µg/mL in series [1], 1 µg/mL in series [2] and 1 µg/mL in [3]. The “log reduction in cfu from 24 hours untreated control” value in series [4] was determined as 4.04 log. Also, in [4], the “log reduction in cfu's from baseline” value came out at 2.58 log. The bioavailability in [5] was 72%; in series [6], 62%.
In the case of `Cl.NCC1OB(O)c2ccc3c(c21)OCO3` (stereo not shown) [Compound 5, 8-(aminomethyl)[1,3]dioxolo[4,5-e][2,1]benzoxaborol-6(8H)-ol hydrochloride], the “log reduction in colony forming units (cfu) from 26 hours untreated control” value is recorded as 3.1 log in series [7] (30 mg/kg four times daily (QID)) and 3.8 log in series [7] (60 mg/kg four times daily (QID)). Moreover, the MIC in [8] (PAO1, read-out: MIC (μg/mL) P. aeruginosa PAO1 MexAB del) stood at 4 µg/mL; in series [8] (PAO1, read-out: MIC (μg/mL) P. aeruginosa PAO1 MexAB over expression), 8 µg/mL; in series [8] (PAO1, read-out: MIC (μg/mL) P. aeruginosa PAO1 Parent), 4 µg/mL; in series [1], 8 µg/mL; in series [2], 1 µg/mL; in series [3], 1 µg/mL. In addition, the MIC in [9] (Muller Hinton Broth, read-out: E. coli ATCC 25922 MIC (μg/mL) MHB) turned out to be 2 µg/mL; in series [9] (pooled human urine pH 5.5, read-out: E. coli ATCC 25922 MIC (μg/mL) Urine pH 5.5) it was 4 µg/mL. Further, the IC50 in [10] was found to be 2.3 µM; in [11] it was 0.8 µM.

The bioavailability is dose-corrected exposure relative to a reference, in per cent. For orientation: IC50 means the point on the concentration scale where inhibition reaches its midpoint. A lower IC50 goes with inhibition by little substance.
